Drawing on ChEMBL document CHEMBL1201862, “PubChem BioAssay data set” (2004), this text covers EC50, IC50 and AC50 for three molecules.

For assay [1], the target named is Aryl hydrocarbon receptor (Homo sapiens, UniProt P35869). Nature of the assay: Luminescence-based cell-based high throughput dose response assay for activators of the Aryl Hydrocarbon Receptor (AHR). [Related pubchem assays: 2796 (Primary screen (AHR activators in singlicate)), 2845 (Confirmation screen (AHR activators in triplicate)), 434939 (Counterscreen (PXR activators in triplicate)), 2804 (Summary (AHR activators))]. Format: ADME.

Assay [2] has as its target Voltage-gated inwardly rectifying potassium channel KCNH2 (Homo sapiens, UniProt Q12809). Briefly: concentration-dependent hERG rescue from blockers – cell-based, thallium flux, dose response (AID 2121). Format: ADME.
Assay [3] in a line: Luminescence Cell-Based Dose Response HTS to Identify Inhibitors of 5'UTR Stem-Loop Driven Prion Protein mRNA Translation in H4 Neuroglioblastoma Cells. [Related pubchem assays: 1827 (Project Summary), 1813 (Primary HTS)]. It counts as functional.
A short description of assay [4]: cells.
For assay [5], the target named is Galanin receptor type 2 (Homo sapiens, UniProt O43603). Nature of the assay: Dose Response cell-based high-throughput screening assay to identify antagonists of galanin receptor 2 (GALR2). [Related pubchem assays: 828, 866 ]. Format: functional.
Assay [6] concerns the target T1, High affinity choline transporter 1 (Homo sapiens, UniProt Q9GZV3).
T1 sequence (Q9GZV3 whole entry): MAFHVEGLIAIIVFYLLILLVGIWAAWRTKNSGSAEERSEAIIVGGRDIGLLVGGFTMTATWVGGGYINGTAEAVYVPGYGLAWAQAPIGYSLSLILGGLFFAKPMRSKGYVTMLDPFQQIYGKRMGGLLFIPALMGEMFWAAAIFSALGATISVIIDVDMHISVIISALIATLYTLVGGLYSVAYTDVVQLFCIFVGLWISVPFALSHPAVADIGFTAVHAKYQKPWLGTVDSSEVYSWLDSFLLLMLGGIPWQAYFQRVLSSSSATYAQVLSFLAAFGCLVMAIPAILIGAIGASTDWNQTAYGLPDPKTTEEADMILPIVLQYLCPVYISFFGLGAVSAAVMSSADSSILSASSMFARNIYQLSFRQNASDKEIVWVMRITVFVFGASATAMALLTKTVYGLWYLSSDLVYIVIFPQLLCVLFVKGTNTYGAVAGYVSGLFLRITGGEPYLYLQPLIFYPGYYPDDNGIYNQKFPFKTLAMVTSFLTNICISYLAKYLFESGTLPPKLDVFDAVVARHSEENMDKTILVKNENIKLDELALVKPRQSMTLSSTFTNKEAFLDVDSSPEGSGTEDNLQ
Nature of the assay: human choline transporter blockers, potency – cell-based, 10-point CRC, membrane potential dye, dose response (AID 588401).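 Further: membrane potential dye fluorescence of choline-evoked depolarization via CHT.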 It counts as functional.

In assay [7] the target is Major prion protein (Homo sapiens, UniProt P04156). It counts as functional, cell-based.
Assay [8] in a line: Luminescence-based dose response cell-based high throughput screening assay for cytotoxic compounds using the IEC-6 intestinal epithelial cell line. [Related pubchem assays: 1858 (Summary AID.), 1825 (Counterscreen.), 1907 (Confirmation screen.)]. It counts as functional.
The test system of assay [9] is BJ. Briefly: BJ-TERT-LT-ST fibroblast viability loss – cell-based, RAS-independent, luminescence, dose response (AID 1935).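 Further: BJ fibroblasts immortalized with TERT plus LT and ST oncogenes.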 Format: functional, Homo sapiens. Particulars: Homo sapiens, BJ.
Assay [10] in a line: cells. Format: functional, cell-based.
Assay [11] is described as follows: luciferase reporter signal reduction – luminescence, H4-C neuroglioblastoma cells, dose response (AID 2458).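 Further: H4 neuroglioblastoma cells stably carrying a luciferase reporter gene fusion.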 Format: functional, cell-based. (In a reporter assay the amount or activity of a reporter protein is the signal.)
Assay [12] deals with T1, High affinity choline transporter 1. Nature of the assay: human choline transporter blockers, potency – cell-based, 5-point CRC, membrane potential dye, dose response (AID 504840). Format: functional.
In assay [13] the target is Photoreceptor-specific nuclear receptor (Homo sapiens, UniProt Q9Y5X4). It counts as functional, cell-based.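 Further: CHO-S cells with Gal4-NCOR and VP16-NR2E3 two-hybrid luciferase reporter.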
In assay [14] the test system is BJ. Briefly: cells. Format: functional, cell-based, Homo sapiens. Particulars: Homo sapiens, BJ.
Assay [15] is described as follows: alpha-synuclein stem-loop luciferase translation blockers – H4 neuroglioma cells, luminescence, confirmation (AID 1988). It counts as functional, cell-based.
Assay [16] in a line: luciferase reporter signal suppression in cells – H4 neuroglioma cells, luminescence, dose response (AID 1990). Format: functional, cell-based.
Assay [17] addresses Paired box protein Pax-8 (Homo sapiens, UniProt Q06710). Briefly: PAX8 transcriptional activity inhibition in RMG-I – RMG-I cells, luciferase, cherry-pick, dose response (AID 687027).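 Further: luciferase reporter driven by Pax8 target thyroperoxidase promoter measured by SteadyGlo luminescence.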 It counts as functional, cell-based.
Assay [18] in a line: alpha-synuclein stem-loop translation blockers – luminescence, H4 neuroglioblastoma cells, dose confirmation, confirmation (AID 2454).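 Further: H4 neuroglioblastoma cells carrying an alpha-synuclein 5'UTR luciferase reporter; potency for inhibition of the luciferase signal.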 Format: functional, cell-based.
In assay [19] the test system is INS1. Nature of the assay: INS-1E survival protection against cytokine death – cell-based, luminescence, retest, dose response (AID 449756).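 Further: cell death triggered by IL-1 beta plus TNF-alpha plus IFN-gamma mixture; protective hits raise ATP signal compared with cytokine alone wells.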 Format: functional. As to conditions: Rattus norvegicus.
The nature of assay [20]: HEK-293T cell viability reduction – luminescence, B-cell screen hits, cytotoxicity control for BCR NF-kB inhibitor project, dose response (AID 489021).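 Further: HEK-293T cells carrying an NF-kB luciferase reporter; cells exposed to compound for about 14 hours before viability readout.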 It counts as functional, cell-based.

Activity calls are given as the source filed them.

Take `Cc1nccc(-c2ccc(-n3cnc4ccccc43)cc2)n1`: the EC50 (in general, the concentration that produces a half-maximal response) in assay [1] was > 1130 nM (active).
As for `COc1ccc(C(=O)CC(=O)C(=O)Nc2ccc(Cl)cc2)cc1`, the EC50 in assay [2] was 1740 nM (active).
As to `CC1CCC/C=C/C2CC(O)CC2C(O)/C=C/C(=O)O1` (stereo not given), the EC50 was < 100 nM (active) in assay [3]; < 120 nM (active) in assay [9]; 78 nM (active) in assay [10]; 78 nM (active) in assay [11]; > 150000 nM (inconclusive) in assay [14]; < 100 nM (active) in [15]. For the same molecule, the EC50 in [16] was < 100 nM (active); in [18] it was 71 nM (active). For the same molecule, the IC50 – broadly, the concentration needed to halve the response being measured – in assay [4] was > 138000 nM (inactive); in assay [5] it was > 42000 nM (not active); in [6], 3030 nM (active); in assay [7], 3430 nM (active); in assay [8] it was 353 nM (active); in assay [12], 1870 nM (active). For the same molecule, the figures for the half-inhibitory concentration (IC50) in assay [13] and in [20] were 714 nM (active) and > 80000 nM (inactive), respectively. Moreover, the half-maximal activity concentration (AC50) – broadly, the concentration at which the activity in the assay is half-maximal – in [17] was < 260 nM (active); in [19], 740 nM (active).
